Data from publication PMC9688225, “α-Lipoic Acid Derivatives as Allosteric Modulators for Targeting AMPA-Type Glutamate Receptors’ Gating Modules” (Cells, 2022).
Like-named read-outs stand apart in the source and are kept apart here.

Assays:
[1] = target: T1, GluA1 AMPA receptor subunit (flip isoform) (Homo sapiens, UniProt P42261); assay: Whole-cell patch-clamp electrophysiology, homomeric GluA1 expressed in HEK293 cells; assay type: cell-based; details: for IC50: Hill fit
T1 construct: expressed in transfected cells; host or cells: HEK293
T1 sequence (P42261 19-906 isoform P42261-2 limits assumed): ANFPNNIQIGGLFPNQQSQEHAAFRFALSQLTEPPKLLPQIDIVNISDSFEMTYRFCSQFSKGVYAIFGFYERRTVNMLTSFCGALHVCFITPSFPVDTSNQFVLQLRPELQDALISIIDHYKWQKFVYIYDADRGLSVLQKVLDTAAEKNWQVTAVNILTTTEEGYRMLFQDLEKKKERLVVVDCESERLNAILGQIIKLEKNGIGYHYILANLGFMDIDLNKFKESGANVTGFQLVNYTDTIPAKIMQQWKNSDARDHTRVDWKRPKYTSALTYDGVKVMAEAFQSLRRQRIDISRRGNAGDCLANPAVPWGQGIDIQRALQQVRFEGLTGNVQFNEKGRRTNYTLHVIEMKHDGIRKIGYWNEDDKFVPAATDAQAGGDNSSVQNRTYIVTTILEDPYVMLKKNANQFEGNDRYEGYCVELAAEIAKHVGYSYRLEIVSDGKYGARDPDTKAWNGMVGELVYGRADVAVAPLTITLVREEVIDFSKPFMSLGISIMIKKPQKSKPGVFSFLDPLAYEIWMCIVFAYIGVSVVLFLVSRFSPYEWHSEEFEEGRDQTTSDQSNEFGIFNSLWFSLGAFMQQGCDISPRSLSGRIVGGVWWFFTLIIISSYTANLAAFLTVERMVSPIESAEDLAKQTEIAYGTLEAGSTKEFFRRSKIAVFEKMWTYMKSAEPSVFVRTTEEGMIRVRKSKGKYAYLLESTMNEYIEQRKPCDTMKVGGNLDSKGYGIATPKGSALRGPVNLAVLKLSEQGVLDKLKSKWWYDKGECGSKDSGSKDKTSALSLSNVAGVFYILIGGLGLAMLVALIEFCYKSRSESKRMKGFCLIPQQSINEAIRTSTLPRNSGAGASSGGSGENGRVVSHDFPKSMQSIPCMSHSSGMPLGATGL
Experimental: (§1) Up to 20 μg of high-copy plasmid DNA was prepared using the QIAGEN Plasmid Mini Kit, the tubes were then centrifuged to extract the supernatant containing the plasmid DNA, ethanol was used to wash the DNA pellet, then centrifuged again and the supernatant was carefully removed as to not disturb the pellet, finally, the pellet was air-dried, and the DNA was re-dissolved in a suitable volume of buffer, (our prior study detailed the whole DNA preparation data). The flip isoform was used in all AMPAR subunits used in this investigation. AMPAR subunits were subcloned in pRK and expressed in the human embryonic kidney cells (HEK293) (The HEK293 cell line was obtained from Sigma, Schnelldorf, Germany). IPA (Integrated Patch Amplifier) recorded HEK293 cells 36–48 h after transfection using the patch-clamp method (Sutter Instruments, Novato, CA, USA). A high-speed piezo solution switcher was installed on a double-barreled glass (theta tube) to provide solutions fast, isolate receptor responses from any network influences, and preserve, as much as possible, the postsynaptic protein machinery. Thus, inhibition was measured by comparing the current recorded when glutamate alone was administered to the current observed when glutamate plus the compound of interest was delivered to the same cell. Before administering the α-LA compounds, experiments were conducted to determine the appropriate concentration to be delivered to the cells without harming them. Dichloromethane (12 µM) effect on GluA1 and GluA2 subunits was tested to ensure that it had no effect on AMPA receptor currents (Figure S8). The effect of α-LA compounds on AMPA subunits plateaued at a concentration of 12 µM because LA inhibits AMPA receptors at low concentrations and continues to inhibit them when LA concentrations are increased by 2 µM each interval, as shown in Figure S1. The concentration increased by 2 µM each time to ensure that no cells were harmed. The cells were washed for 20 s between α-LA derivatives (12 µM), and 10 mM glutamate was supplied alone after each α-LA compound to ensure cell health. Data analysis was carried out using Igor Pro7 (Wave Metrics, inc). For both desensitization (τw des) and deactivation rates (τw deact), an exponential fit to the current decline was obtained at 95% of peak to baseline current. The weighted tau (τw) was calculated as τw = (τf × af) + (τs × as), where af and as are the amplitudes of the fast (τf) and slow (τs) exponential components, respectively. Our study detailed the experimental data set.
(§2) Data are presented as mean ± standard error of the mean (SEM). The number of samples (n = 10) refers to the total number of tested HEK293 cells. Statistical differences between the groups and the wild type were examined by One Way Analysis of Variance (ANOVA), with values of p < 0.05 being considered to indicate statistical significance: (*) p < 0.05, (**) p < 0.01, (***) p < 0.001, ns, not significant. Concentration-response relationships were fitted as composite curves using GraphPad Prism version 6.01 (GraphPad Software, San Diego, CA, USA) to the Hill equation. All results were representative of at least three independent experiments.
(§3) Figure 2 Suppression of AMPA receptor currents by α-LA compounds. Graphs (a,c,e,g) present AMPA receptor currents (pA) before and after the administration of α-LA derivatives on GluA1, GluA1/2, GluA2, and GluA2/3 subunits. While (b,d,f,h) present the ratio A/AI, where A represents the current caused by 10 mM glutamate alone and AI represents the current induced by glutamate + α-LA (12 µM). The whole-cell current was measured at −60 mV, pH 7.4, and 22 °C. A one way analysis of variance (ANOVA) was performed for comparison: *** p < 0.001; ns, not significant. Ten cells were investigated for each LA compound. All values are shown as mean SEM.
(§4) Figure 3 The potency of LA compounds against AMPA receptor subunits. […]

[2] = target: T2, GluA1/2 AMPA receptor subunits (flip isoform) (Homo sapiens, UniProt P42261+P42262); assay: Whole-cell patch-clamp electrophysiology, heteromeric GluA1/2 expressed in HEK293 cells; assay type: cell-based; details: for IC50: Hill fit
T2 construct: expressed in transfected cells; host or cells: HEK293
T2 sequence (P42261 19-906 isoform P42261-2 limits assumed): as above
T2 sequence (P42262 25-883 isoform P42262-2 limits assumed): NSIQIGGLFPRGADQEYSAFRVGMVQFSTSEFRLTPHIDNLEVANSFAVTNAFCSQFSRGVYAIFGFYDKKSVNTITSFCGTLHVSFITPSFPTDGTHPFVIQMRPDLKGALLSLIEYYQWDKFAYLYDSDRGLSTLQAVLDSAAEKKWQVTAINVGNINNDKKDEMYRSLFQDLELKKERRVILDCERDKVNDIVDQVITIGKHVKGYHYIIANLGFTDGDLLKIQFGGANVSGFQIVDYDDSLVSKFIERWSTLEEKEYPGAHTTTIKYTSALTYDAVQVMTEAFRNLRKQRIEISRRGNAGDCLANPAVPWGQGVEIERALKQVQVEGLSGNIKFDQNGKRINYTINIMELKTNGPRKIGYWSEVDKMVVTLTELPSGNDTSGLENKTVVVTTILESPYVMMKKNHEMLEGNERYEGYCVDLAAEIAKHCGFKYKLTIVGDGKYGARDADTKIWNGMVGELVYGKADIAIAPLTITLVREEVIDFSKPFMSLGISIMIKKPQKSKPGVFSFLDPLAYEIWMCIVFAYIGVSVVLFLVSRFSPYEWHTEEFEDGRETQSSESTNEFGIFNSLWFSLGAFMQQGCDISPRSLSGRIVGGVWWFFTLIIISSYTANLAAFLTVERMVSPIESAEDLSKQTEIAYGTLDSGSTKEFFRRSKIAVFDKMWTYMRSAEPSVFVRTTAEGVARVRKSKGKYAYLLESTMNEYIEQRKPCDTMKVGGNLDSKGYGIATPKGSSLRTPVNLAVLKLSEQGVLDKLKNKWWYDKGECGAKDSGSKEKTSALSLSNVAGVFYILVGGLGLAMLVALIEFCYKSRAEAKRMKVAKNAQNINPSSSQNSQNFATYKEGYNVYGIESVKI
Experimental: as §1, §2, §3, §4

[3] = target: T3, GluA2 AMPA receptor subunit (flip isoform) (Homo sapiens, UniProt P42262); assay: Whole-cell patch-clamp electrophysiology, homomeric GluA2 expressed in HEK293 cells; assay type: cell-based; details: for IC50: Hill fit
T3 construct: expressed in transfected cells; host or cells: HEK293
T3 sequence (P42262 25-883 isoform P42262-2 limits assumed): as above
Experimental: as §1, §2, §3, §4

[4] = target: T4, GluA2/3 AMPA receptor subunits (flip isoform) (Homo sapiens, UniProt P42262+P42263); assay: Whole-cell patch-clamp electrophysiology, heteromeric GluA2/3 expressed in HEK293 cells; assay type: cell-based; details: for IC50: Hill fit
T4 construct: expressed in transfected cells; host or cells: HEK293
T4 sequence (P42262 25-883 isoform P42262-2 limits assumed): as above
T4 sequence (P42263 29-894 isoform P42263-2 limits assumed): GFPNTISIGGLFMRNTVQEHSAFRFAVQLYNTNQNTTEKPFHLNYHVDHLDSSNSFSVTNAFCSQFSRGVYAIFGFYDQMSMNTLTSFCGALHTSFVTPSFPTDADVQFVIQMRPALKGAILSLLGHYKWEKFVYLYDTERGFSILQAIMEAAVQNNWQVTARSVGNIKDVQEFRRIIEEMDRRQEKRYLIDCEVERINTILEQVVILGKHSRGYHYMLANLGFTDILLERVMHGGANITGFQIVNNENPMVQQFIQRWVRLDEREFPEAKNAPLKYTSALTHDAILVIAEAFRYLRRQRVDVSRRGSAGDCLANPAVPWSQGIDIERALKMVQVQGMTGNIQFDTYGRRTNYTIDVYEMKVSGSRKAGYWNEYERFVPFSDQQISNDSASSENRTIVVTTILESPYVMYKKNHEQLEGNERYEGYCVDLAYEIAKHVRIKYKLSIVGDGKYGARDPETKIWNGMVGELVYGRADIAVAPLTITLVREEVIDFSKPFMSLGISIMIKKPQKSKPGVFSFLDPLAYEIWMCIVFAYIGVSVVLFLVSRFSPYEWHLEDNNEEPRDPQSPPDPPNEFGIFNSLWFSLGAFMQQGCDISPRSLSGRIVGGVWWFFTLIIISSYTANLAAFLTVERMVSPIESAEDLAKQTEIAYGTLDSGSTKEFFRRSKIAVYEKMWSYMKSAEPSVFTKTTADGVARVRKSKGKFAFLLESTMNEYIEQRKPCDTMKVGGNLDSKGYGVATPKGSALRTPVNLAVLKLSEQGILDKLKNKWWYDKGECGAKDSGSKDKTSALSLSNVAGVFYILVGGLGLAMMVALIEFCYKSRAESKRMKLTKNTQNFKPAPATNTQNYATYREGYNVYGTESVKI
Experimental: as §1, §2, §3, §4

[5] = test system: AMPA receptor subunits (GluA1, GluA2, GluA1/2, GluA2/3); assay: Whole-cell patch-clamp electrophysiology, summary over the AMPA receptor subunits in HEK293 cells; assay type: cell-based
Experimental: as §1, §2
The levels of inhibition of α-LA and its derivatives attracted our attention to assessing the potency of the compounds in a concentration-dependent manner. […] The concentration−inhibition curves were produced by administering glutamate alone at a concentration of 10 mM, followed by glutamate + α-LA derivatives at varying concentrations (in μM) for every recording point. Afterward, the cells were normalized back by administering glutamate alone. Since the glutamate concentration in the synaptic cleft constantly saturates the receptors, driving the response to a near maximum level, variability occurs because the maximum level changes. […]

HEK293 cells = test system: HEK293 cells; set-up: method as in PMID 23780308; details: 8 µM α-lipoic acid; cited from earlier work
[6] = test system: EA.hy926 endothelial cells; set-up: method as in PMID 18026819; details: 40–80 µM α-lipoic acid; cited from earlier work
[7] = 10 mM glutamate + 12 µM compound, −60 mV, pH 7.4, 22 °C, mean ± SEM, n = 10
[8] = 10 mM glutamate, 12 µM compound, n = 10
[9] = whole-cell normalized peak amplitude, unit printed in the text, not in Table S6, read-out: IC50
[10] = all AMPA receptor subunits, 12 µM compound

- Amplitude (glutamate + compound) [1, 7]: 102±14.0 pA
- A/AI (current with glutamate alone / current with glutamate + compound) [1, 8]: 9.26±0.6
- IC50 ([1]; read-out: Log IC50 (converted)): 3.55 µM
- t deact (weighted deactivation time constant) ([1]; glutamate + 12 µM compound, glutamate alone 2.2±0.1 ms): 9.1 ± 0.6 ms
- IC50 [1, 9]: 3.54 µM
- Amplitude (glutamate + compound) [2, 7]: 69±10.0 pA
- A/AI (current with glutamate alone / current with glutamate + compound) [2, 8]: 9.13±0.9
- IC50 ([2]; read-out: Log IC50 (converted)): 3.89 µM
- t deact (weighted deactivation time constant) ([2]; glutamate + 12 µM compound, glutamate alone 2.5±0.3 ms): 8.9 ± 0.5 ms
- IC50 [2, 9]: 3.86 µM
- Amplitude (glutamate + compound) [3, 7]: 136±22 pA
- A/AI (current with glutamate alone / current with glutamate + compound) [3, 8]: 9.09±0.8
- IC50 ([3]; read-out: Log IC50 (converted)): 3.89 µM
- t deact (weighted deactivation time constant) ([3]; glutamate + 12 µM compound, glutamate alone 2.4±0.1 ms): 8.8 ± 0.5 ms
- IC50 [3, 9]: 3.93 µM
- Amplitude (glutamate + compound) [4, 7]: 60±11.0 pA
- A/AI (current with glutamate alone / current with glutamate + compound) [4, 8]: 8.93±1.0
- IC50 ([4]; read-out: Log IC50 (converted)): 3.98 µM
- t deact (weighted deactivation time constant) ([4]; glutamate + 12 µM compound, glutamate alone 2.4±0.3 ms): 8.6 ± 0.7 ms
- IC50 [4, 9]: 4.01 µM
- IC50 ([5]; over GluA1, GluA1/2, GluA2, GluA2/3, read-out: approximate IC50 against AMPA receptor subunits): 3.5 to 4 µM
SMILES: O=C(O)CCCCC1CCSS1 (stereo not drawn) [α-LA, alpha-Lipoic acid, reference compound]
- t des (weighted desensitization time constant) ([1]; glutamate + 12 µM compound, glutamate alone 2.3±0.1 ms): 1.3 ± 0.1 ms
- t des (weighted desensitization time constant) ([2]; glutamate + 12 µM compound, glutamate alone 5.3±0.4 ms): 3.3 ± 0.3 ms
- t des (weighted desensitization time constant) ([3]; glutamate + 12 µM compound, glutamate alone 2.6±0.1 ms): 1.5 ± 0.04 ms
- t des (weighted desensitization time constant) ([4]; glutamate + 12 µM compound, glutamate alone 2.7±0.3 ms): 1.6 ± 0.09 ms
- increase of the rate of AMPA receptor deactivation (τw deact) [5, 10]: about 4 fold
- reduction in the rate of desensitization (τw des) [5, 10]: 2 fold
- increase of the ratio A/AI ([5]; all AMPA receptor subunits, glutamate alone vs glutamate + compound): 9 fold
- harm to the cells (HEK293 cells): without noticing any harm
- toxicity to the cells [6]: without causing toxicity
